Results on 1 substance are retold here after US7445894B2, “Compositions and methods for detection and isolation of phosphorylated molecules” (priority 2002, dated 2008).

The target of one assay is T1, lysozyme (Gallus gallus, UniProt P00698).
T1 construct: purchased Sigma Chemical Company L-7651
Put plainly: Fluorescence polarization of Compound 2-Ga3+ with non-phosphorylated control protein. It is filed as binding. The conditions noted are these: 1.0 μM Compound 2, 100 μM lysozyme plus 1 μM gallium chloride. On the procedure:
(§1) First, an assay was conducted with a (1) phosphoprotein (ovalbumin) and a (2) control non-phosphorylated protein (lysozyme). A modified binding solution containing 1.0 μM Compound 2 was incubated in 50 mM 2-(N-morpholino)ethanesulfonic acid (pH 3.0 to 3.5), 500 mM NaCl at room temperature in parallel to solutions containing, in addition, (a) 1 μM gallium chloride, (b) 100 μM lysozyme plus 1 μM gallium chloride, or (c) and 100 μM ovalbumin plus 1 μM gallium chloride. The fluorescence polarization of the resulting solutions was then measured in a fluorescence spectrophotometer with excitation at 530 nm and emission at 545 to 700 nm. The integrated polarized emission spectra yielded anisotropy “r values” of: r=0.10+/−0.003+/−0.02 (Compound 2 plus gallium); r=0.10+/−0.002 (Compound 2 plus lysozyme non-phosphorylated control); r=0.34+/−0.002 (Compound 2 plus gallium plus ovalbumin), indicating phosphorylation-dependent binding of the Compound 2 to this phosphoprotein (see FIG. 10A)

The next assay concerns the target T2, ovalbumin (Gallus gallus, UniProt P01012).
T2 construct: purchased Sigma Chemical Company A-7641
T2 sequence (P01012 1-386): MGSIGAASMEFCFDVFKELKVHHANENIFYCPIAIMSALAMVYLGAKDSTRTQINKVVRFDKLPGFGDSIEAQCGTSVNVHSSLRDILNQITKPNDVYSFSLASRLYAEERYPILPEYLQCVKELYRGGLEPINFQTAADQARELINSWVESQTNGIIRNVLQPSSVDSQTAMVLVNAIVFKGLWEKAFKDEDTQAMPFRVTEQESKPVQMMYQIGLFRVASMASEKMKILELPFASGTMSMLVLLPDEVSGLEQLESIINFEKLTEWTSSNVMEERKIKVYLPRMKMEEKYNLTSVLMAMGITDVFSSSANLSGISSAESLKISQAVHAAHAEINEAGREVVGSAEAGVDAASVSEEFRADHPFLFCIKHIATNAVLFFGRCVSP
Kind of assay: Fluorescence polarization of Compound 2-Ga3+ with phosphoprotein. It is filed as binding. The conditions noted are these: 1.0 μM Compound 2, 100 μM ovalbumin plus 1 μM gallium chloride. Here is the method:
as §1
On the technique in general: Fluorescence polarisation rises when a labelled molecule tumbles more slowly, as on binding a larger partner.

The target in another assay is pepsin (Sus scrofa, UniProt P00791). Kind of assay: Detection of phosphoproteins in SDS-polyacrylamide gels with binding solution. The conditions noted are these: monophosphorylated protein, binding solution with gallium chloride, SDS polyacrylamide mini-gel. On the procedure: (§2) Proteins were loaded in two-fold dilution series on SDS polyacrylamide mini-gels from 2 ng-1000 ng; each protein sample was done in series in four replicate gels. The phosphoproteins were α-casein (7 or 8 phosphates); dephosphorylated α-casein (1 or 2 phosphates); β-casein (5 phosphates); ovalbumin (2 phosphates) and pepsin (1 phosphate). BSA contains no phosphates and was used as a negative control.
(§3) Phosphoproteins were separated by SDS-polyacrylamide gel electrophoresis utilizing a 4% T, 2.6% C stacking gel, pH 6.8 and 13% T, 2.6% C separating gel, and pH 8.8, according to standard procedures. % T is the total monomer concentration (acrylamide+crosslinker) expressed in grams per 100 mL and % C is the percentage crosslinker (e.g., N,N′-methylene-bis-acrylamide, N,N′-diacryloylpiperazine or other suitable agent). The separating gels were 8 cm wide by 5 cm high and […] in thickness. After electrophoresis, the gels were fixed by immersing them in 100 mL 45% methanol and 5% acetic acid for 90 minutes. The gels were washed twice in water for a total of 30 minutes. The gels were then added to a binding solution of the invention (Example 1E) and incubated for 120 minutes at room temperature with gentle orbital shaking, typically 50 rpm. The binding buffer contained 50 mM NaOAc (pH 4.0), 250 mM sodium chloride, 20% v/v 1,2-propanediol, 1 μM gallium chloride. […]

Another assay concerns the target T3, β-casein (Bos taurus, UniProt P02666).
T3 sequence (P02666 16-224): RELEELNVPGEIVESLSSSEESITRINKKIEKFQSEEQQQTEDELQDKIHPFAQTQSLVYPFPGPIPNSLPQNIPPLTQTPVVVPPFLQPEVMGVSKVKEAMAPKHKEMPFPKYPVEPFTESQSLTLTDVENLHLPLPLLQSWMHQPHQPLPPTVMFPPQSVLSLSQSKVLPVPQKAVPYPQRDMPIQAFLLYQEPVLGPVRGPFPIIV
Described as above. The conditions noted are these: pentaphosphorylated protein, binding solution with gallium chloride, SDS polyacrylamide mini-gel. On the procedure: as §2, §3

T1 sequence (P00698 19-147): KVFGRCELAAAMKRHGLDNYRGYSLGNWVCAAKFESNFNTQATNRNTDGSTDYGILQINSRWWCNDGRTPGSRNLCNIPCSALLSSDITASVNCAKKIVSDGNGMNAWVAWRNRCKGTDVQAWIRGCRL
Sequence of pepsin (P00791 60-385): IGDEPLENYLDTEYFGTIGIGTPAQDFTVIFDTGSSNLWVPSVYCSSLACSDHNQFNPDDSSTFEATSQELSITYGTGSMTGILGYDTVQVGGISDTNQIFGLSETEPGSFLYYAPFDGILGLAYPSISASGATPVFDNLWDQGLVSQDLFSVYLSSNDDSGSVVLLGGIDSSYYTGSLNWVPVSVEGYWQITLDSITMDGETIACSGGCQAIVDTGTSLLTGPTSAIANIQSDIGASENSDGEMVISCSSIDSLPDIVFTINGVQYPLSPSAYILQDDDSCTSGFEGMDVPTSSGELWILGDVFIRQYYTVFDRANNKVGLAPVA

Turning to Rhod-5F [Compound 2], the figures for the anisotropy r value at lysozyme and on ovalbumin were 0.10+/−0.002 and 0.34+/−0.002, respectively. Also, the entries for the “amount detectable in gel” value at pepsin and at β-casein were 8 ng and 1 to 2 ng, respectively.
